# Assay results published in patent US20220289765A1, “CRYSTAL OF CARCINOGENIC FUSED KINASE INHIBITOR AND APPLICATIONS THEREOF” (Simcere Pharmaceutical Co., Ltd., priority 2019, published 2022).
# Like-named read-outs stand apart in the source and are kept apart here.
# Assays:
# [1] = target: T1, ALK (Homo sapiens, UniProt Q9UM73); assay: Kinase inhibitory activity (33P-ATP filtration-binding, Reaction Biology Corp.); assay type: biochemical; details: read-out: Half Inhibitory Concentrations of Kinases IC50, ALK
# T1 construct: purchased Reaction Biology Corp
# Experimental: The inhibitory activity tests of compounds against kinases such as TrkA, TrkC, ALK, Ros1 were completed in Reaction Biology Corp. Certain concentrations of substrate, cofactors, kinases and test compounds (10 doses, 3-fold serial dilutions, 2% DMSO final concentration) were sequentially added to the reaction buffer (20 mM Hepes (pH 7.5), 10 mM MgCl2, 1 mM EGTA, 0.02% Brij35, 0.02 mg/mL BSA, 0.1 mM Na3VO4, 2 mM DTT, 1% DMSO), and mixed well. The resulting mixture was incubated at room temperature for 20 minutes, and a certain concentration of 33P-ATP was added to the reaction mixture to initiate the reaction, followed by incubation at room temperature for 120 minutes. Finally, the radioactivity of the reactants was detected by a filtration-binding method. The final kinase activity was expressed by the ratio of the remaining kinase activity in the test sample to the kinase activity of the DMSO control group. The dose-effect curve was fitted by GraphPad software and the IC50 values were calculated.
# [2] = tested on: Ba/F3 LMNA-NTRK1-WT stable transformant cell line; assay: Cell proliferation inhibition (CellTiter-Glo, 72 h); assay type: cell-based; details: Mus musculus, BaF3, read-out: Half Inhibitory Concentrations of Cells IC50, Ba/F3 LMNA-NTRK1-WT
# Experimental: Adenosine Tri-Phosphate (ATP) is an energy carrier shared by various life activities in nature and is the smallest unit of energy storage and transfer. In CellTiter-Glo™ Live Cell Detection Kit, luciferase was used as a detection substance, and it required the involvement of ATP during luminescence. CellTiter-Glo™ reagent was added to the cell culture medium to measure a luminescence value, and the light signal was proportional to the amount of ATP in the system, and ATP was positively correlated to the number of viable cells. Therefore, by detecting the ATP content using the CellTiter-Glo Kit, cell proliferation can be detected. In this test, the cell line was Ba/F3 LMNA-NTRK1-WT stable transformant cell line, and the number of cells was 5000/well.
# • a) Cells in the logarithmic growth phase were harvested and counted by using a […]. Cell viability was detected by trypan blue exclusion assay to ensure that the cell viability was above 90%. • b) The cell concentration was adjusted, and 90 μL cell suspension was added to a 96-well plate, respectively. • c) Cells in the 96-well plate were incubated overnight at 37° C., 5% CO2 and 95% humidity. […]
# The data were analyzed using GraphPad Prism 5.0 software, and were fitted to obtain a dose-effect curve using a non-linear S-curve regression, and the IC50 values were calculated therefrom.
# [3] = tested on: Ba/F3 LMNA-NTRK1-F589L; assay: as above; assay type: cell-based; details: Mus musculus, BaF3, read-out: Half Inhibitory Concentrations of Cells IC50, Ba/F3 LMNA-NTRK1-F589L
# [4] = tested on: Ba/F3 LMNA-NTRK1-G595R; assay: as above; assay type: cell-based; details: Mus musculus, BaF3, read-out: Half Inhibitory Concentrations of Cells IC50, Ba/F3 LMNA-NTRK1-G595R
# [5] = tested on: BaF3 ETV6-NTRK3-G623R; assay: as above; assay type: cell-based; details: Mus musculus, read-out: Half Inhibitory Concentrations of Cells IC50, BaF3 ETV6-NTRK3-G623R
# [6] = tested on: Ba/F3 SLC34A2-ROS1-WT; assay: as above; assay type: cell-based; details: Mus musculus, BaF3, read-out: Half Inhibitory Concentrations of Cells IC50, Ba/F3 SLC34A2-ROS1-WT
# [7] = Cassette pharmacokinetic test in mice (plasma, brain, CSF); assay type: in vivo, male CD-1 mice; details: cassette; for AUC(0-inf): read-out: Area under Curve AUC0-inf
# Experimental: The pharmacokinetic behaviors of the compounds of the present invention in mice were studied and the pharmacokinetic properties thereof were evaluated.
# [8] = Pharmacokinetic test in mice; assay type: in vivo; details: male CD-1 mice; for AUC(0-t): read-out: Area under Curve AUC0-last
# Experimental: The drug concentrations of the compounds in plasma at different time points were determined by LC/MS/MS method after single intravenous (IV) and intragastric (PO) administration of the compounds to 7-9 week old male CD-1 mice as the test animals. The pharmacokinetic behaviors of the compounds of the present invention in mice were studied and pharmacokinetic properties thereof were evaluated.
# The compounds were prepared into clear solutions using 5% DMSO+10% solutol+85% water as a solvent for administration in IV (intravenous injection) and PO (gavage) groups. The administration dosage of each compound was 3 mg/kg for the IV group and […] for the PO group.
# T1 sequence (Q9UM73 19-1620): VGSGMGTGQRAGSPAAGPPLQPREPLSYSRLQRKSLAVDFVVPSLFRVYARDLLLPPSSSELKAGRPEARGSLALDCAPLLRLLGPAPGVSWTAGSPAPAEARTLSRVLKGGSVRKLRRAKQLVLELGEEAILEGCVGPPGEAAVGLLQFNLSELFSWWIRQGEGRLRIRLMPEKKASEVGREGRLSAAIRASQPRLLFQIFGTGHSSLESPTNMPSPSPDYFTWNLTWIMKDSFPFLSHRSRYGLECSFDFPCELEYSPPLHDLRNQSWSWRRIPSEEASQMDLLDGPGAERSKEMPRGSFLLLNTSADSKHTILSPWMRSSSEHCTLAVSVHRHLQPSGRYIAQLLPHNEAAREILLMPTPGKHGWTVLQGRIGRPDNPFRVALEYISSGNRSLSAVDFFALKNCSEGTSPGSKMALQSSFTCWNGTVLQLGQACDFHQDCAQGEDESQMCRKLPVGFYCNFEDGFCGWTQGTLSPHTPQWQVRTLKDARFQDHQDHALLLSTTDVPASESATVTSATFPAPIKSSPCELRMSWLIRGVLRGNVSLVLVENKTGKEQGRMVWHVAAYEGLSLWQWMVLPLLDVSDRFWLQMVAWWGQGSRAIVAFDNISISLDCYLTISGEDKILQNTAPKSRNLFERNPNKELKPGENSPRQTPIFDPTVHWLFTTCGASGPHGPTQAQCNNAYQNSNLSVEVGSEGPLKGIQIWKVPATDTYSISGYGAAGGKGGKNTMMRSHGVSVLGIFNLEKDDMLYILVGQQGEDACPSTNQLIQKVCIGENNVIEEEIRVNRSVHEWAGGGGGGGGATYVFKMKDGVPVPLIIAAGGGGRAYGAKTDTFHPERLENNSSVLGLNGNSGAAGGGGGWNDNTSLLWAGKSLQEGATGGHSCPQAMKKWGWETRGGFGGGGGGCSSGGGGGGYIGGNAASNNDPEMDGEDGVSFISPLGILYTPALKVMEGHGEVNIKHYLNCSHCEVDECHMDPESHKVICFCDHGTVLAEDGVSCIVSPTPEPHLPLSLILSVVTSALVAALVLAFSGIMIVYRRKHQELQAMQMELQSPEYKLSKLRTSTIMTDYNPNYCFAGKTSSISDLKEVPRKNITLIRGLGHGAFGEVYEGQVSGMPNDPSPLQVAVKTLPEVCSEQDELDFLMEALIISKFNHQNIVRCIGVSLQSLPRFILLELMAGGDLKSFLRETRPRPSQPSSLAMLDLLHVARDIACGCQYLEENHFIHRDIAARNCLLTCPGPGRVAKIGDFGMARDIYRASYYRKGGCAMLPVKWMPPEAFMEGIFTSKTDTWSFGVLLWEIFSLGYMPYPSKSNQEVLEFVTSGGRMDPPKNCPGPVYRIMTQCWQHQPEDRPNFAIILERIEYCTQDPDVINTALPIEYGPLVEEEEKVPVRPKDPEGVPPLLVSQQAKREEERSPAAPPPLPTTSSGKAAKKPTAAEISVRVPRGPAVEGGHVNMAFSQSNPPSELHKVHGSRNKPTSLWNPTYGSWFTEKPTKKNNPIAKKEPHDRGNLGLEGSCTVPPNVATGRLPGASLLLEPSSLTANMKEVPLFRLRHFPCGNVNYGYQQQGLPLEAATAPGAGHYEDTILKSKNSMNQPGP
smiles,measurement,setting,value
O=C1NC2(CC2)COc2ncc(F)cc2[C@H]2CCON2c2ccn3ncc1c3n2 [Compound of Formula (I)],IC50,[1],13 nM
same,IC50,[2],1.26 nM
same,IC50,[3],0.78 nM
same,IC50,[4],6.2 nM
same,IC50,[5],3.4 nM
same,IC50,[6],2.53 nM
same,Apparent Clearance Cl,"[7]; IV @ 1 mpk, male CD-1 mice",6.3 mL/kg/min
same,Drug Concentration in Cerebrospinal Fluid at 0.5 h,"[7]; PO @ 3 mpk, CSF, 0.5 h",63 nmol/kg
same,Drug Concentration in Cerebrospinal Fluid at 2 h,"[7]; PO @ 3 mpk, CSF, 2 h",21 nmol/kg
same,Drug Concentration in Brain at 0.5 h,"[7]; PO @ 3 mpk, brain, 0.5 h",663 nmol/kg
same,Drug Concentration in Brain at 2 h,"[7]; PO @ 3 mpk, brain, 2 h",343 nmol/kg
same,Vd,"[7]; mouse, plasma, 1 mg/kg, IV @ 1 mpk, male CD-1 mice, read-out: Apparent Distribution Volume Vd",0.57 L/kg
same,AUC(0-inf),"[7]; mouse, plasma, 1 mg/kg, IV @ 1 mpk, male CD-1 mice",6.69 µM·h
same,half-life,"[7]; mouse, plasma, 1 mg/kg, IV @ 1 mpk, male CD-1 mice, read-out: Half-life T1/2 (converted)",52.8 min
same,C0,"[7]; mouse, plasma, 1 mg/kg, IV @ 1 mpk, male CD-1 mice, read-out: Initial Concentration C0",3.71 µM
same,bioavailability,"[7]; mouse, plasma, 3 mg/kg, PO @ 3 mpk vs IV @ 1 mpk, male CD-1 mice, read-out: Bioavailability F %",76%
same,AUC(0-inf),"[7]; mouse, plasma, 3 mg/kg, PO @ 3 mpk, male CD-1 mice",19.8 µM·h
same,Cmax,"[7]; mouse, plasma, 3 mg/kg, PO @ 3 mpk, male CD-1 mice, read-out: Peak Concentration Cmax",4.74 µM
same,Tmax,"[7]; mouse, plasma, 3 mg/kg, PO @ 3 mpk, male CD-1 mice, read-out: Time to Peak Tmax",15 min
same,Apparent Clearance Cl,"[8]; IV, 3 mg/kg",7.2 mL/kg/min
same,Vd,"[8]; mouse, plasma, IV, 3 mg/kg, read-out: Apparent Distribution Volume Vd",0.49 L/kg
same,AUC(0-t),"[8]; mouse, plasma, IV, 3 mg/kg",17.5 µM·h
same,half-life,"[8]; mouse, plasma, IV, 3 mg/kg, read-out: Half-life T1/2 (converted)",45 min
same,bioavailability,"[8]; mouse, plasma, PO (10 mL/kg [sic]) vs IV 3 mg/kg, read-out: Bioavailability F %",51%
same,AUC(0-t),"[8]; mouse, plasma, PO, dosage given as 10 mL/kg",29.8 µM·h
same,Cmax,"[8]; mouse, plasma, PO, dosage given as 10 mL/kg, read-out: Peak Concentration Cmax",9.14 µM
same,Tmax,"[8]; mouse, plasma, PO, dosage given as 10 mL/kg, read-out: Time to Peak Tmax",30 min
